From patent US20230247990A1, “Stable Botanical Antimicrobial Compositions” (The Trustees of Columbia University in the city of New York, priority 2020, published 2023) come the findings set out here.

The nature of the series: Accelerated aging method, long term stability at 45° C. In kind it is physicochemical. Particulars: temperature higher than 40° C., including 45° C. of the accelerated aging method.

Experimental: In certain embodiments, the 1 year period is achieved through simulating such conditions with the accelerated aging method. The accelerated aging method can be conducted by keeping the solutions at 45° C. for 8 weeks, which is equivalent to stability of 1 year under regular, room temperature conditions.
The accelerated aging method was conducted by keeping the solutions at 45° C. for 8 weeks, which is equivalent to stability of 1 year at regular, room temperature conditions.

For `C=CCCCCCCCCC(=O)O` [Undecylenic acid], the “Solubility in solvents at elevated temperature” value was “gradually precipitates”.
